Biological target: T1, CusB (Escherichia coli, UniProt P77239, A236C/A248C)
T1 construct: intein (cleaved yes); made in house; host or cells: E. coli BL21 (DE3)
Experiment: DEER distance distribution measurements on spin-labeled CusB
Design: species or system E. coli
Details: CusB spin labeled (MTSSL) at A236C and A248C; Cu(I):CusB 3:1; Q-band DEER at 50 K; apo-CusB 2.5 ± 0.5 nm, holo-CusB 2.8 ± 0.3 nm
Protocol: Before labeling, 10 mM DTT was added to the protein solution and mixed overnight at 4°C. DTT was dialyzed out using a Microsep Advanced Centrifugal Device (Pall, Port Washington, NY, USA) applied to samples of up to 5 mL in lysis buffer, with a 3-kDa molecular weight cutoff. Next, 0.25 mg of S-(2,2,5,5-tetramethyl-2,5-dihydro-1H-pyrrol-3-yl)methyl methanesulfonothioate (MTSSL, TRC) was dissolved in 15 μL Dimethyl sulfoxide (DMSO) and added to 0.75 ml of 0.01 mM protein solution (20-fold molar excess of MTSSL). The protein solution was then vortexed overnight at 4°C. The free spin label and Cu(I) ions were removed by several dialysis cycles over 4 days. […] The concentration was determined with a Lowry assay. […]
A constant-time four-pulse double electron-electron resonance (DEER) experiment with pulse sequence π/2(νobs)-τ1-π(νobs)-t′−π(νpump)-(τ1 + τ2 − t′)-π(νobs)-τ2(νobs)-τ2-echo was performed at (50 ± 0.5 K) on a Q-band Elexsys E580 equipped with a 2-mm probe head; bandwidth, 220 MHz. […] The echo was measured as a function of t′, and τ2 was kept constant to eliminate relaxation effects. […] The samples were measured in 1.6-mm quartz capillary tubes (Wilmad-Labglass, Vineland, NJ, USA). The data were analyzed with the DeerAnalysis 2016 program and with Tikhonov regularization. […]

Substance: AKIQG [pep8]
- DEER distance distribution of CusB bound to peptide and incubated with Cu(I): around 3.2 nm

From paper PMC6936879, “Inhibiting the copper efflux system in microbes as a novel approach for developing antibiotics” (PLoS ONE, 2019)
